Measurements taken from US20070254303A1, “Methods for assessing the efficacy of treatment with a glucocorticoid” (Praecis Pharmaceuticals Incorporated, priority 2006, published 2007).

Columns and labels:
[1] = target: T1, MetAP-2 in white blood cells (Rattus norvegicus, UniProt P38062); experiment: MetAP-2 pharmacodynamic assay (ELISA of uninhibited MetAP-2 in white blood cell lysates of treated rats); format: in vivo; conditions: po, PG-PS arthritic rats, every other day, relative to the vehicle-treated group, read-out: MetAP-2 in white blood cells inhibited; for inhibition at 1 mg/kg: 1 mg/kg orally, pooled wbc after conclusion of study
T1 construct: white blood cells from animals of each study group were pooled and cell lysates were prepared; from tissue; host or cells: white blood cells of female Lewis rats (PG-PS arthritis model)
T1 sequence (P38062 whole entry): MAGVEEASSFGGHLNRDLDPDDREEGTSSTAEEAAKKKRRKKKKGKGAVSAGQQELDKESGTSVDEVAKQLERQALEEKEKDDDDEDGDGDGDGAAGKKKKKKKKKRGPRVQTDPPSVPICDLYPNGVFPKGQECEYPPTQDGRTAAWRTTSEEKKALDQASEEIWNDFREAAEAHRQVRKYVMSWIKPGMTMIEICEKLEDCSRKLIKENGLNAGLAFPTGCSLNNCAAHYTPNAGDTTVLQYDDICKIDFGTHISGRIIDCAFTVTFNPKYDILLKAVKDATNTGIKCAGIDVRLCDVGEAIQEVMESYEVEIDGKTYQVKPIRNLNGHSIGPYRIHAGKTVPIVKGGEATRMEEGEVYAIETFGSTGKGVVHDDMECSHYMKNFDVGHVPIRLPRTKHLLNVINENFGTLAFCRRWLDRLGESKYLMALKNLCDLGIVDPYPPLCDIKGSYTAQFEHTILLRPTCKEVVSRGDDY
Description: After completion of the study, wbc from rats of different groups that had been treated with vehicle (p.o., qod), dex (1 mg/kg, p.o., qod) or MetAP-2 inhibitor (1, 5, or 10 mg/kg, p.o., qod) were pooled, lysed, and the amount of MetAP-2 inhibited in wbc lysates was determined by the MetAP-2 pharmacodynamic assay. All values are expressed as percentage of the amount of MetAP-2 inhibited compared with vehicle-treated rats. The amount of uninhibited MetAP-2 (=100%) in vehicle-treated rats in this assay corresponded to 41 ng MetAP-2 per mg wbc protein. The detection limit was 0.47 ng MetAP-2 per mg wbc protein. Columns: 10 rats per group, except for naive rats treated with vehicle (n=4).
(§1) Rat model of Peptidoglycan-Polysaccharide (PG-PS) induced arthritis. Female Lewis rats (109-130 g) were received from Charles River Laboratories. Food and water were available ad libitum. PG-PS (25 mg/kg) was injected intraperitoneally on day 1 and responding animals were randomized into treatment groups on day 14. Vehicle (11% HPCD in PBS), dexamethasone and a methionine aminopeptidase 2 inhibitor (1, 5, and 10 mg/kg) were administered orally, every other day. Paw swelling was monitored using a plethysmometer (Stoelting Co., Woodale, Ill.) according to instrument specifications. The volumes of the two hind paws were measured and averaged on day 1, 4, 6, 8, 10, 13, 15, 17, 20, 22, 23, 27, 29 and 31. Ten animals were assigned to each group except the vehicle group and animals which received no PG-PS, but 10 mg/kg of the methionine aminopeptidase 2 inhibitor (n=4). The methionine aminopeptidase 2 inhibitor comprising the structure structure (1-Carbamoyl-2-methyl-propyl)-carbamic acid-(3R, 4S, 5S, 6R )-5-methoxy-4-[(2R, 3R)-2-methyl-3-(3-methyl-but-2-enyl)-oxiranyl]-1-oxa-spiro[2.5]oct-6-yl ester was used in the present studies.
MetAP-2 pharmacodynamic assay. The MetAP-2 assay is an ELISA assay that measures the amount of uninhibited MetAP-2 in cells or tissues which has not been derivitized by prior treatment with a methionine aminopeptidase 2 inhibitor and/or a glucocorticoid. The assay was performed as described in, for example, Bernier, S. G., et al. (2004) Proc. Natl. Acad. Sci. USA 101: 10768-10773 and Bernier, S. G., et al. (2005) J. Cell. Biochem. 95:1191-1203, the entire contents of each of which are incorporated herein by reference. Briefly, white blood cells from animals of each study group were pooled and cell lysates were prepared as described in, for example, Bernier, S. G., et al. (2004) Proc. Natl. Acad. Sci. USA 101: 10768-10773 and Bernier, S. G., et al. (2005) J. Cell. Biochem. 95:1191-1203. […] After 1 hour, the plates were washed, and the immobilized biotinylated MetAP-2-inhibitor complex was then detected with an anti-MetAP-2 antibody, CM33 (0.5 μg/ml). […]

[2] = tested on: Peptidoglycan-Polysaccharide (PG-PS) induced arthritis; experiment: Rat model of PG-PS induced arthritis, paw swelling of the hind limbs; format: in vivo; conditions: 1, 5 and 10 mg/kg orally, every other day, day 15 to day 31; compared to vehicle-treated animals
Description: as §1

Row | SMILES | inhibition at 1 mg/kg [1] | joint swelling and inflammation, measured by paw swelling of the hind limbs [2] | inhibition at 5 mg/kg ([1]; 5 mg/kg orally) | inhibition at 10 mg/kg ([1]; 10 mg/kg orally)
1 | C[C@@H]1C[C@H]2[C@@H]3CCC4=CC(=O)C=C[C@]4(C)[C@@]3(F)[C@@H](O)C[C@]2(C)[C@@]1(O)C(=O)CO [dexamethasone, reference compound] | ≥ 90% |  |  | 
2 | CO[C@@H]1[C@H](OC(=O)N[C@@H](C(N)=O)C(C)C)CC[C@]2(CO2)[C@H]1[C@@]1(C)O[C@@H]1CC=C(C)C [methionine aminopeptidase 2 inhibitor, (1-Carbamoyl-2-methyl-propyl)-carbamic acid-(3R, 4S, 5S, 6R )-5-methoxy-4-[(2R, 3R)-2-methyl-3-(3-methyl-but-2-enyl)-oxiranyl]-1-oxa-spiro[2.5]oct-6-yl ester] | ≥ 60% | significant amelioration of joint swelling and inflammation | ≥ 95% | ≥ 95%
